A short description of test [1]: Dissociation constant against constrictor response to the compound blocked competitively by phentolamine for alpha-mediated events. In kind it is functional.
Test [2] has as its target T1, Alpha-1A adrenergic receptor (Homo sapiens) (UniProt P35348).
T1 sequence (whole entry): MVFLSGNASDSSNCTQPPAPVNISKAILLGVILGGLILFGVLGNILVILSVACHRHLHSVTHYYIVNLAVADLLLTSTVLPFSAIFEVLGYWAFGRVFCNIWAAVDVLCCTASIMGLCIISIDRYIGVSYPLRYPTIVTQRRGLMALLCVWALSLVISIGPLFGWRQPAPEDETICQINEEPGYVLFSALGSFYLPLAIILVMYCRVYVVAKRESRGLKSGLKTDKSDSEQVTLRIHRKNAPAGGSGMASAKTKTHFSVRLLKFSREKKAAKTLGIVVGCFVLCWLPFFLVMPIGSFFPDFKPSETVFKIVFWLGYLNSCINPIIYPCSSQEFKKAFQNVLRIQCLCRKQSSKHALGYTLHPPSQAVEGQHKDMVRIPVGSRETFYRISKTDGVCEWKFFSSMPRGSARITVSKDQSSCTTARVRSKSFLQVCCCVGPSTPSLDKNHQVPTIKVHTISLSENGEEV
In words: Effect of zero external [Ca2+] on the contractions induced by acompound in the canine saphenous vein at EC50 concentration experimented in the presence of 2 mM EGTA and expressed as percent of control response in […] Ca+ physiological saline; abso. The settings on record: Canis lupus familiaris. It is filed as functional, tissue-based.

Test [3] concerns the target T1, Alpha-1A adrenergic receptor (Homo sapiens). Briefly: Effect of zero uM external [Ca2+] on the contractions induced by compound in the canine saphenous vein at EC100 concentration experimented in the presence of 2 mM EGTA and expressed as percent of control response in […] Ca+ physiological saline; absolute concentration 5.0 X 10e-5 M. The note with it: Canis lupus familiaris. In kind it is functional, tissue-based.

Test [4] shares this target. Briefly: Effect of 1 uM external [Ca2+] on the contractions induced by compound in the canine saphenous vein at EC50 concentration and expressed as percent of control response in […] Ca+; absolute concentration 5.0 +/- 1.5 X 10e-7 M. The settings on record: Canis lupus familiaris. In kind it is functional, tissue-based.
For test [5] the target is unchanged. Briefly: Effect of zero external [Ca2+] on the contractions induced by compound in the canine saphenous vein in the presence of 2 mM EGTA and expressed as percent of control response in […] Ca+ physiological saline; absolute concentration 1.5 +/-0.7 X 10e-. It is filed as functional, tissue-based. The note with it: Canis lupus familiaris.
For test [6] the target is unchanged. Briefly: Effect of 1 uM external [Ca2+] on the contractions induced by compound in the canine saphenous vein at EC25 concentration and expressed as percent of control response in […] Ca+; absolute concentration 1.5 +/-0.7 X 10e-7 M. In kind it is functional, tissue-based. The settings on record: Canis lupus familiaris.
Test [7] has the same target. In words: Effect of 1 uM external [Ca2+] on the contractions induced by compound in the canine saphenous vein at EC100 concentration and expressed as percent of control response in […] Ca+; absolute concentration 5.0 X 10e-5 M. It is filed as functional, tissue-based. The settings on record: Canis lupus familiaris.

Structures are written as SMILES.

The values that follow come from ChEMBL document CHEMBL1123141, “N-[2-hydroxy-5-[2-(methylamino)ethyl]phenyl]methanesulfonamide. A potent agonist which releases intracellular calcium by activation of alpha 1-adrenoceptors” (J Med Chem, 1985).

Consider `CNCCc1ccc(O)c(NS(C)(=O)=O)c1`, for which the Ki in test [1] was below 20 nM. Besides, the Control response is 20.2% in test [2]; 37.9% in test [3]; 37.6% in test [4]; 6% in test [5]; 8.1% in test [6]; 78.3% in test [7].
